{"source": "patent US20110257242A1", "about": "“3-PHENYL-3-METHOXYPYRROLIDINE DERIVATIVES AS MODULATORS OF CORTICAL CATECHOLAMINERGIC NEUROTRANSMISSION” (NSAB, FILIAL AF NEUROSEARCH SWEDEN AB, SVERIGE, priority 2008, published 2011)", "test_system": "MK-801 pre-treated rats", "assay": "Locomotor activity in MK-801 pre-treated rats (antipsychotic activity model)", "conditions": "MK-801 0.7 mg/kg i.p., no test compound, recorded between 30 and 60 minutes", "data": [{"molecule": "C[C@]12N[C@H](Cc3ccccc31)c1ccccc12", "note": "[MK-801]", "values": [{"measurement": "Locomotor activity, MK-801 alone", "value": 48068, "unit": "counts/30 min"}]}]}
